Measurements taken from ChEMBL document CHEMBL1122874, “Orally absorbable cephalosporin antibiotics. 1. Structure-activity relationships of benzothienyl- and naphthylglycine derivatives of 7-aminodeacetoxycephalosporanic acid” (1985).
In brackets after ≈: the same amount, converted by molar mass.

Legend:
Streptococcus pyogenes [1] = assay: Antibacterial activity against Streptococcus pyogenes C203.; format: functional
Staphylococcus aureus [2] = assay: Antibacterial activity against methicillin resistant Staphylococcus aureus X400; format: functional
Streptococcus = assay: Antibacterial activity against Streptococcus group D X66.; format: functional
Streptococcus pneumoniae [3] = assay: Antibacterial activity against Streptococcus pneumoniae Park.
Staphylococcus aureus [4] = assay: Antibacterial activity against penicillin G sensitive Staphylococcus aureus V41; format: functional
Staphylococcus aureus [5] = assay: Antibacterial activity against methicillin resistant Staphylococcus aureus S13E.; format: functional
Haemophilus influenzae [6] = assay: Antibacterial activity against resistant Haemophilus influenzae 76.; format: functional
Staphylococcus aureus [7] = assay: Antibacterial activity against penicillin G sensitive Staphylococcus aureus X1.1.; format: functional
Haemophilus influenzae [8] = assay: Antibacterial activity against sensitive Haemophilus influenzae C.L.; format: functional
[9] = test system: Staphylococcus epidermidis; assay: Antibacterial activity against Staph. epidermis EP11; format: functional
Streptococcus pneumoniae [10] = assay: Antibacterial activity in mice infected with Streptococcus pneumoniae Park1; format: functional
Streptococcus pyogenes [11] = assay: Antibacterial activity in mice infected with Streptococcus pyogenes C203 by oral administration; format: functional
Streptococcus pneumoniae [12] = assay: Antibacterial activity in mice infected with Streptococcus pneumoniae Park1 by subcutaneous administration; format: functional
Streptococcus pyogenes [13] = assay: Antibacterial activity in mice infected with Streptococcus pyogenes C203 by subcutaneous administration; format: functional
Staphylococcus aureus [14] = assay: Antibacterial activity in mice infected with Staphylococcus aureus 3055 by oral administration; format: functional
Staphylococcus aureus [15] = assay: Antibacterial activity in mice infected with Staphylococcus aureus 3055 by subcutaneous administration; format: functional
Streptococcus pyogenes [16] = assay: Antibacterial activity in mice infected with Streptococcus pyogenes C203; format: functional
Staphylococcus aureus [17] = assay: Antibacterial activity in mice infected with Staphylococcus aureus 3055; format: functional
Streptococcus pneumoniae [18] = assay: Antibacterial activity in mice infected with Streptococcus pneumoniae Park1 by oral administration; format: functional
Streptococcus pneumoniae [19] = assay: Antibacterial activity in mice infected with Streptococcus pneumoniae Park1 after oral administration; format: functional
Streptococcus pyogenes [20] = assay: Antibacterial activity in mice infected with Streptococcus pyogenes C203 after oral administration; format: functional
Staphylococcus aureus [21] = assay: Antibacterial activity in mice infected with Staphylococcus aureus 3055 after oral administration; format: functional
Streptococcus pneumoniae [22] = assay: Antibacterial activity in mice infected with Streptococcus pneumoniae Park1 after subcutaneous administration; format: functional
Staphylococcus aureus [23] = assay: Antibacterial activity in mice infected with Staphylococcus aureus 3055 after subcutaneous administration; format: functional
Streptococcus pyogenes [24] = assay: Antibacterial activity in mice infected with Streptococcus pyogenes C203 after subcutaneous administration; format: functional

CC1=C(C(=O)O)N2C(=O)C(NC(=O)[C@@H](N)c3cc4c(Cl)cccc4s3)C2SC1 (stereo partly drawn)
MIC (Streptococcus pyogenes [1]): 0.125 µg/mL (≈ 0.285 µM)
MIC (Staphylococcus aureus [2]): 16 µg/mL (≈ 36.5 µM)
MIC (Streptococcus): 64 µg/mL (≈ 146 µM)
MIC (Streptococcus pneumoniae [3]): 0.5 µg/mL (≈ 1.14 µM)
MIC (Staphylococcus aureus [4]): 4 µg/mL (≈ 9.13 µM)
MIC (Staphylococcus aureus [5]): 4 µg/mL (≈ 9.13 µM)
MIC (Haemophilus influenzae [6]): 1 µg/mL (≈ 2.28 µM)
MIC (Staphylococcus aureus [7]): 0.5 µg/mL (≈ 1.14 µM)
MIC (Haemophilus influenzae [8]): 32 µg/mL (≈ 73.1 µM)
MIC [9]: 2 µg/mL (≈ 4.57 µM)

CC1=C(C(=O)O)N2C(=O)C(NC(=O)[C@H](N)c3csc4cc(F)ccc34)C2SC1 (stereo partly drawn)
MIC (Streptococcus): 128 µg/mL (≈ 304 µM)
MIC (Streptococcus pneumoniae [3]): 0.5 µg/mL (≈ 1.19 µM)
MIC (Staphylococcus aureus [5]): 8 µg/mL (≈ 19 µM)
MIC [9]: 4 µg/mL (≈ 9.49 µM)

CC1=C(C(=O)O)N2C(=O)C(NC(=O)[C@H](N)c3ccc4ccccc4c3)C2SC1 (stereo partly drawn)
MIC (Streptococcus pyogenes [1]): 0.125 µg/mL (≈ 0.315 µM)
MIC (Staphylococcus aureus [2]): 64 µg/mL (≈ 161 µM)
MIC (Streptococcus pneumoniae [10]): 1 µg/mL (≈ 2.52 µM)
ED50 (Streptococcus pyogenes [11]): 3.4 mg/kg
ED50 (Streptococcus pneumoniae [12]): 17.6 mg/kg
ED50 (Streptococcus pyogenes [13]): 2 mg/kg
MIC (Streptococcus): 64 µg/mL (≈ 161 µM)
MIC (Streptococcus pneumoniae [3]): 0.5 µg/mL (≈ 1.26 µM)
ED50 (Staphylococcus aureus [14]): 0.41 mg/kg
MIC (Staphylococcus aureus [4]): 8 µg/mL (≈ 20.1 µM)
ED50 (Staphylococcus aureus [15]): 0.07 mg/kg
MIC (Staphylococcus aureus [5]): 8 µg/mL (≈ 20.1 µM)
MIC (Haemophilus influenzae [6]): 2 µg/mL (≈ 5.03 µM)
MIC (Streptococcus pyogenes [16]): 0.125 µg/mL (≈ 0.315 µM)
MIC (Staphylococcus aureus [7]): 0.5 µg/mL (≈ 1.26 µM)
MIC (Haemophilus influenzae [8]): 8 µg/mL (≈ 20.1 µM)
MIC (Staphylococcus aureus [17]): 0.5 µg/mL (≈ 1.26 µM)
ED50 (Streptococcus pneumoniae [18]): > 25 mg/kg
MIC [9]: 4 µg/mL (≈ 10.1 µM)

CC1=C(C(=O)O)N2C(=O)C(NC(=O)[C@H](N)c3ccc4cccc(Cl)c4c3)C2SC1 (stereo partly drawn)
MIC (Streptococcus pyogenes [1]): 0.25 µg/mL (≈ 0.579 µM)
MIC (Staphylococcus aureus [2]): 4 µg/mL (≈ 9.26 µM)
MIC (Streptococcus): 16 µg/mL (≈ 37 µM)
MIC (Streptococcus pneumoniae [3]): 0.25 µg/mL (≈ 0.579 µM)
MIC (Staphylococcus aureus [4]): 1 µg/mL (≈ 2.32 µM)
MIC (Staphylococcus aureus [5]): 1 µg/mL (≈ 2.32 µM)
MIC (Haemophilus influenzae [6]): 0.5 µg/mL (≈ 1.16 µM)
MIC (Staphylococcus aureus [7]): 0.5 µg/mL (≈ 1.16 µM)
MIC (Haemophilus influenzae [8]): 8 µg/mL (≈ 18.5 µM)
MIC [9]: 1 µg/mL (≈ 2.32 µM)

CC1=C(C(=O)O)N2C(=O)C(NC(=O)[C@H](N)c3csc4cc(Cl)ccc34)C2SC1 (stereo partly drawn)
MIC (Streptococcus pyogenes [1]): 0.5 µg/mL (≈ 1.14 µM)
MIC (Staphylococcus aureus [2]): 16 µg/mL (≈ 36.5 µM)
MIC (Streptococcus): 128 µg/mL (≈ 292 µM)
MIC (Streptococcus pneumoniae [3]): 1 µg/mL (≈ 2.28 µM)
MIC (Staphylococcus aureus [4]): 8 µg/mL (≈ 18.3 µM)
MIC (Staphylococcus aureus [5]): 8 µg/mL (≈ 18.3 µM)
MIC (Haemophilus influenzae [6]): 1 µg/mL (≈ 2.28 µM)
MIC (Staphylococcus aureus [7]): 1 µg/mL (≈ 2.28 µM)
MIC (Haemophilus influenzae [8]): 8 µg/mL (≈ 18.3 µM)
MIC [9]: 4 µg/mL (≈ 9.13 µM)

CC1=C(C(=O)O)N2C(=O)C(NC(=O)[C@H](N)c3csc4ccc(F)cc34)C2SC1 (stereo partly drawn)
MIC (Streptococcus pyogenes [1]): 0.25 µg/mL (≈ 0.593 µM)
MIC (Staphylococcus aureus [2]): 64 µg/mL (≈ 152 µM)
MIC (Streptococcus): 128 µg/mL (≈ 304 µM)
MIC (Streptococcus pneumoniae [3]): 1 µg/mL (≈ 2.37 µM)
MIC (Staphylococcus aureus [4]): 8 µg/mL (≈ 19 µM)
MIC (Staphylococcus aureus [5]): 8 µg/mL (≈ 19 µM)
MIC (Haemophilus influenzae [6]): 4 µg/mL (≈ 9.49 µM)
MIC (Staphylococcus aureus [7]): 1 µg/mL (≈ 2.37 µM)
MIC (Haemophilus influenzae [8]): 4 µg/mL (≈ 9.49 µM)
MIC [9]: 8 µg/mL (≈ 19 µM)

CC1=C(C(=O)O)N2C(=O)C(NC(=O)[C@@H](N)c3csc4ccccc34)C2SC1 (stereo partly drawn)
ED50 (Streptococcus pneumoniae [19]): 16 mg/kg
MIC (Streptococcus pyogenes [1]): 0.5 µg/mL (≈ 1.24 µM)
MIC (Streptococcus pneumoniae [10]): 1 µg/mL (≈ 2.48 µM)
MIC (Streptococcus): 128 µg/mL (≈ 317 µM)
MIC (Streptococcus pneumoniae [3]): 0.5 µg/mL (≈ 1.24 µM)
ED50 (Streptococcus pyogenes [20]): 1.7 mg/kg
MIC (Haemophilus influenzae [6]): 0.5 µg/mL (≈ 1.24 µM)
ED50 (Staphylococcus aureus [21]): 0.6 mg/kg
MIC (Streptococcus pyogenes [16]): 0.5 µg/mL (≈ 1.24 µM)
ED50 (Streptococcus pneumoniae [22]): 18 mg/kg
MIC (Staphylococcus aureus [7]): 1 µg/mL (≈ 2.48 µM)
ED50 (Staphylococcus aureus [23]): 0.4 mg/kg
MIC (Haemophilus influenzae [8]): 2 µg/mL (≈ 4.96 µM)
MIC (Staphylococcus aureus [17]): 1 µg/mL (≈ 2.48 µM)
ED50 (Streptococcus pyogenes [24]): 2.3 mg/kg

CC1=C(C(=O)O)N2C(=O)C(NC(=O)[C@H](N)c3cccc4ccc(Cl)cc34)C2SC1 (stereo partly drawn)
MIC (Streptococcus pyogenes [1]): 0.25 µg/mL (≈ 0.579 µM)
MIC (Staphylococcus aureus [2]): 16 µg/mL (≈ 37 µM)
MIC (Staphylococcus aureus [4]): 4 µg/mL (≈ 9.26 µM)
MIC (Staphylococcus aureus [5]): 4 µg/mL (≈ 9.26 µM)
MIC (Haemophilus influenzae [6]): 4 µg/mL (≈ 9.26 µM)
MIC (Staphylococcus aureus [7]): 1 µg/mL (≈ 2.32 µM)
MIC (Haemophilus influenzae [8]): 16 µg/mL (≈ 37 µM)
MIC [9]: 2 µg/mL (≈ 4.63 µM)

CC1=C(C(=O)O)N2C(=O)C(NC(=O)[C@H](N)c3csc4ccc(Cl)cc34)C2SC1 (stereo partly drawn)
MIC (Streptococcus pyogenes [1]): 0.125 µg/mL (≈ 0.285 µM)
MIC (Staphylococcus aureus [2]): 16 µg/mL (≈ 36.5 µM)
MIC (Streptococcus): 64 µg/mL (≈ 146 µM)
MIC (Streptococcus pneumoniae [3]): 0.25 µg/mL (≈ 0.571 µM)
MIC (Staphylococcus aureus [4]): 4 µg/mL (≈ 9.13 µM)
MIC (Staphylococcus aureus [5]): 2 µg/mL (≈ 4.57 µM)
MIC (Haemophilus influenzae [6]): 0.5 µg/mL (≈ 1.14 µM)
MIC (Staphylococcus aureus [7]): 0.5 µg/mL (≈ 1.14 µM)
MIC [9]: 4 µg/mL (≈ 9.13 µM)

CC1=C(C(=O)O)N2C(=O)C(NC(=O)[C@H](N)c3csc4cc(Cl)c(Cl)cc34)C2SC1 (stereo partly drawn)
MIC (Streptococcus pyogenes [1]): 0.25 µg/mL (≈ 0.529 µM)
MIC (Staphylococcus aureus [2]): 64 µg/mL (≈ 135 µM)
MIC (Streptococcus pneumoniae [3]): 0.5 µg/mL (≈ 1.06 µM)
MIC (Staphylococcus aureus [4]): 8 µg/mL (≈ 16.9 µM)
MIC (Staphylococcus aureus [5]): 4 µg/mL (≈ 8.47 µM)
MIC (Haemophilus influenzae [6]): 1 µg/mL (≈ 2.12 µM)
MIC (Staphylococcus aureus [7]): 1 µg/mL (≈ 2.12 µM)
MIC (Haemophilus influenzae [8]): 4 µg/mL (≈ 8.47 µM)
MIC [9]: 4 µg/mL (≈ 8.47 µM)

CC1=C(C(=O)O)N2C(=O)C(NC(=O)[C@H](N)c3csc4c(F)cccc34)C2SC1 (stereo partly drawn)
MIC (Streptococcus pyogenes [1]): 0.125 µg/mL (≈ 0.297 µM)
MIC (Staphylococcus aureus [2]): 128 µg/mL (≈ 304 µM)
MIC (Streptococcus pneumoniae [3]): 0.5 µg/mL (≈ 1.19 µM)
MIC (Staphylococcus aureus [4]): 16 µg/mL (≈ 38 µM)
MIC (Staphylococcus aureus [5]): 8 µg/mL (≈ 19 µM)
MIC (Haemophilus influenzae [6]): 0.5 µg/mL (≈ 1.19 µM)
MIC (Staphylococcus aureus [7]): 0.5 µg/mL (≈ 1.19 µM)
MIC (Haemophilus influenzae [8]): 4 µg/mL (≈ 9.49 µM)
MIC [9]: 4 µg/mL (≈ 9.49 µM)
